Data: patent US6403628B1 (dated 2002)

Row | melting point | Structure (SMILES)
1 | 113 °C | CSc1c(C(C)=O)nn(-c2c(Cl)cc(C(F)(F)F)cc2Cl)c1N
2 | 126 °C | CNc1c([S+](C)[O-])c(C(C)=O)nn1-c1c(Cl)cc(C(F)(F)F)cc1Cl (centres unmarked)
3 | 123 °C | CCNc1c([S+](C)[O-])c(C(C)=O)nn1-c1c(Cl)cc(C(F)(F)F)cc1Cl (centres unmarked)
4 | 102 °C | CCS(=O)(=O)CCNc1c([S+](C)[O-])c(C(C)=O)nn1-c1c(Cl)cc(C(F)(F)F)cc1Cl (centres unmarked)
5 | 67 to 102 °C | CC(=O)c1nn(-c2c(Cl)cc(C(F)(F)F)cc2Cl)c(NSC(F)(F)F)c1[S+](C)[O-] (centres unmarked)
6 | 166 °C | CC(=O)c1nn(-c2c(Cl)cc(C(F)(F)F)cc2Cl)c(N)c1[S+](C)[O-] (centres unmarked)
7 | 189 °C | CC[S+]([O-])c1c(C(C)=O)nn(-c2c(Cl)cc(C(F)(F)F)cc2Cl)c1N (centres unmarked)
8 | 153 °C | CC(=O)c1nn(-c2c(Cl)cc(C(F)(F)F)cc2Br)c(N)c1[S+](C)[O-] (centres unmarked)
